System: 885512-296-R-J2-PDC complex spheroid viability
Test: Anticancer human tumor 885512-296-R-J2-PDC patient-derived breast carcinoma cell line growth inhibition
Conditions: for IC50: curve of first compound; for viability, T/C: stronger effect = lower value
Summary of the method: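 Complex spheroids of tumor cells with HUVEC and human MSCs, exposed to iadademstat combined with other agents. Each agent tested in half-log steps from near clinical Cmax (else 10 microM top), DMSO ≤0.25%.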

[1] = second compound 0.1 µM, first compound 0.00949 µM
[2] = second compound 0.1 µM, first compound 0.03 µM
[3] = second compound 0.1 µM, first compound 0.0949 µM
[4] = second compound 0.1 µM, first compound 0.3 µM
[5] = second compound 0.1 µM, first compound 0.949 µM
[6] = second compound 0.1 µM, first compound 3 µM
[7] = second compound 0.316 µM, first compound 0.00949 µM
[8] = second compound 0.316 µM, first compound 0.03 µM
[9] = second compound 0.316 µM, first compound 0.0949 µM
[10] = second compound 0.316 µM, first compound 0.3 µM
[11] = second compound 0.316 µM, first compound 0.949 µM
[12] = second compound 0.316 µM, first compound 3 µM
[13] = second compound 1 µM, first compound 0.00949 µM
[14] = second compound 1 µM, first compound 0.03 µM
[15] = second compound 1 µM, first compound 0.0949 µM
[16] = second compound 1 µM, first compound 0.3 µM
[17] = second compound 1 µM, first compound 0.949 µM
[18] = second compound 1 µM, first compound 3 µM
[19] = second compound 3.16 µM, first compound 0.00949 µM
[20] = second compound 3.16 µM, first compound 0.03 µM
[21] = second compound 3.16 µM, first compound 0.0949 µM
[22] = second compound 3.16 µM, first compound 0.3 µM
[23] = second compound 3.16 µM, first compound 0.949 µM
[24] = second compound 3.16 µM, first compound 3 µM
[25] = second compound 10 µM, first compound 0.00949 µM
[26] = second compound 10 µM, first compound 0.03 µM
[27] = second compound 10 µM, first compound 0.0949 µM
[28] = second compound 10 µM, first compound 0.3 µM
[29] = second compound 10 µM, first compound 0.949 µM
[30] = second compound 10 µM, first compound 3 µM
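Note: spheroids exposed to agents for 7 days before viability read.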

Cn1ncnc1C1c2n[nH]c(=O)c3cc(F)cc(c23)NC1c1ccc(F)cc1 (stereo not given) + NC1CCC(NC2CC2c2ccccc2)CC1
IC50 (second compound 0.1 µM): 16 nM | IC50 (second compound 0.316 µM): 25 nM | IC50 (second compound 1 µM): 27.6 nM | IC50 (second compound 3.16 µM): 27.3 nM | IC50 (second compound 10 µM): 14.2 nM | viability, T/C (second compound 0.1 µM, first compound 0.000316 µM): 140% | viability, T/C (second compound 0.1 µM, first compound 0.001 µM): 105% | viability, T/C (second compound 0.1 µM, first compound 0.00316 µM): 77.6% | viability, T/C (second compound 0.1 µM, first compound 0.01 µM): 67.2% | viability, T/C (second compound 0.1 µM, first compound 0.0316 µM): 37.7% | viability, T/C (second compound 0.1 µM, first compound 0.1 µM): 10.2% | viability, T/C (second compound 0.316 µM, first compound 0.000316 µM): 122% | viability, T/C (second compound 0.316 µM, first compound 0.001 µM): 113% | viability, T/C (second compound 0.316 µM, first compound 0.00316 µM): 81.6% | viability, T/C (second compound 0.316 µM, first compound 0.01 µM): 79% | viability, T/C (second compound 0.316 µM, first compound 0.0316 µM): 44% | viability, T/C (second compound 0.316 µM, first compound 0.1 µM): 13.3% | viability, T/C (second compound 1 µM, first compound 0.000316 µM): 108% | viability, T/C (second compound 1 µM, first compound 0.001 µM): 105% | viability, T/C (second compound 1 µM, first compound 0.00316 µM): 89.6% | viability, T/C (second compound 1 µM, first compound 0.01 µM): 76.7% | viability, T/C (second compound 1 µM, first compound 0.0316 µM): 44.6% | viability, T/C (second compound 1 µM, first compound 0.1 µM): 28.5% | viability, T/C (second compound 3.16 µM, first compound 0.000316 µM): 106% | viability, T/C (second compound 3.16 µM, first compound 0.001 µM): 104% | viability, T/C (second compound 3.16 µM, first compound 0.00316 µM): 86.1% | viability, T/C (second compound 3.16 µM, first compound 0.01 µM): 75.2% | viability, T/C (second compound 3.16 µM, first compound 0.0316 µM): 44.5% | viability, T/C (second compound 3.16 µM, first compound 0.1 µM): 28.6% | viability, T/C (second compound 10 µM, first compound 0.000316 µM): 92% | viability, T/C (second compound 10 µM, first compound 0.001 µM): 85% | viability, T/C (second compound 10 µM, first compound 0.00316 µM): 72% | viability, T/C (second compound 10 µM, first compound 0.01 µM): 56.8% | viability, T/C (second compound 10 µM, first compound 0.0316 µM): 36% | viability, T/C (second compound 10 µM, first compound 0.1 µM): 18.6%

NS(=O)(=O)OCC1CC(n2ccc3c(NC4CCc5ccccc54)ncnc32)CC1O (stereo not given) + NC1CCC(NC2CC2c2ccccc2)CC1
IC50 (second compound 0.1 µM): < 9.49 nM | IC50 (second compound 0.316 µM): < 9.49 nM | IC50 (second compound 1 µM): < 9.49 nM | IC50 (second compound 3.16 µM): < 9.49 nM | IC50 (second compound 10 µM): < 9.49 nM | viability, T/C [1]: 16.7% | viability, T/C [2]: 7.98% | viability, T/C [3]: 5.83% | viability, T/C [4]: 2.1% | viability, T/C [5]: 8.58% | viability, T/C [6]: 9.25% | viability, T/C [7]: 12.9% | viability, T/C [8]: 8.7% | viability, T/C [9]: 7.27% | viability, T/C [10]: 5.01% | viability, T/C [11]: 6.94% | viability, T/C [12]: 6.92% | viability, T/C [13]: 16.3% | viability, T/C [14]: 8.77% | viability, T/C [15]: 4.53% | viability, T/C [16]: 4.31% | viability, T/C [17]: 1.23% | viability, T/C [18]: 6.71% | viability, T/C [19]: 14.2% | viability, T/C [20]: 8.91% | viability, T/C [21]: 3.64% | viability, T/C [22]: 1.52% | viability, T/C [23]: 4.11% | viability, T/C [24]: 3.57% | viability, T/C [25]: 10.2% | viability, T/C [26]: 5.83% | viability, T/C [27]: 2.78% | viability, T/C [28]: 1.64% | viability, T/C [29]: 1.08% | viability, T/C [30]: 0.82%

O=C(C=Cc1cccc(S(=O)(=O)Nc2ccccc2)c1)NO + NC1CCC(NC2CC2c2ccccc2)CC1
IC50 (second compound 0.1 µM): 74.6 nM | IC50 (second compound 0.316 µM): 84.5 nM | IC50 (second compound 1 µM): 84.7 nM | IC50 (second compound 3.16 µM): 70.7 nM | IC50 (second compound 10 µM): 50 nM | viability, T/C [1]: 104% | viability, T/C [2]: 80.2% | viability, T/C [3]: 42.8% | viability, T/C [4]: 19.8% | viability, T/C [5]: 13.6% | viability, T/C [6]: 17.1% | viability, T/C [7]: 112% | viability, T/C [8]: 87.6% | viability, T/C [9]: 45.6% | viability, T/C [10]: 22.4% | viability, T/C [11]: 15.7% | viability, T/C [12]: 14.6% | viability, T/C [13]: 108% | viability, T/C [14]: 84.4% | viability, T/C [15]: 47.1% | viability, T/C [16]: 19.9% | viability, T/C [17]: 12.3% | viability, T/C [18]: 11.9% | viability, T/C [19]: 90.2% | viability, T/C [20]: 69.2% | viability, T/C [21]: 43.8% | viability, T/C [22]: 24.1% | viability, T/C [23]: 12.7% | viability, T/C [24]: 12.7% | viability, T/C [25]: 90.8% | viability, T/C [26]: 65.5% | viability, T/C [27]: 30.6% | viability, T/C [28]: 17.3% | viability, T/C [29]: 8.4% | viability, T/C [30]: 16.5%

Source: PubChem BioAssay AID1918946 (Molecular Pharmacology Branch, DTP, NCI, 2023)
